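Dose response: 5 concentrations. Exposure: 48 h. Format: 96-well plates. Endpoint: linear interpolation; highest concentration if not reached. TGI denotes the concentration required for complete inhibition of growth.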
Key:
Test in all cases: NCI anticancer screen, dose series, 48 h
[1] = tested on: OVCAR-8 ovarian
[2] = tested on: NCI-H23 lung
[3] = tested on: HOP-92 NSCLC
[4] = tested on: HOP-62 NSCLC
[5] = tested on: SW-620 colon
[6] = tested on: MDA-MB-231 breast
[7] = tested on: DU-145 prostate
[8] = tested on: MOLT-4 leukemia
[9] = tested on: UACC-257 melanoma
[10] = tested on: SR leukemia

Row | Structure (SMILES) | TGI [1] | TGI [2] | TGI [3] | TGI [4] | TGI [5] | TGI [6] | TGI [7] | TGI [8] | TGI [9] | TGI [10]
1 | CCOc1ccc(/C=C2/C(=O)N=C(NC(C)=O)N2C)cc1 | > 100 µM | > 100 µM | > 100 µM | > 100 µM | > 100 µM | > 100 µM | > 100 µM | > 100 µM | > 100 µM | –
2 | CCC1(C)C=Cc2c(cc(O)c3c(=O)c4ccccc4n(C)c23)O1 (stereo not drawn) | > 10 µM | > 10 µM | > 10 µM | > 10 µM | > 10 µM | > 10 µM | > 10 µM | > 10 µM | > 10 µM | –
3 | CC(=O)OCC1OC(n2c3c(cc(C#N)c2=S)CCCCC3)C(OC(C)=O)C(OC(C)=O)C1OC(C)=O (stereo not drawn) | > 100 µM | > 100 µM | > 100 µM | > 100 µM | – | > 100 µM | > 100 µM | > 100 µM | > 100 µM | > 100 µM
4 | O=C1NC2OC(C(O)CO)C(O)C2O1 (stereo not drawn) | > 100 µM | > 100 µM | > 100 µM | – | > 100 µM | – | – | > 100 µM | > 100 µM | > 100 µM
5 | COc1ccc(/C=C2\N=C(SC)NC2=O)cc1 | > 100 µM | > 100 µM | – | > 100 µM | > 100 µM | > 100 µM | > 100 µM | > 100 µM | – | –
6 | O=C(CN(c1ccccc1)c1ccccc1)n1nnc2ccccc21 | > 100 µM | > 100 µM | – | > 100 µM | > 100 µM | – | – | > 100 µM | > 100 µM | > 100 µM
7 | O=c1oc2ccc([N+](=O)[O-])cc2c(Nc2ccc3c(c2)Oc2ccccc2O3)c1[N+](=O)[O-] | > 100 µM | 62.3 µM | 54.1 µM | > 100 µM | – | 37 µM | > 100 µM | – | 76.6 µM | 72.4 µM
8 | OCc1ccc(C2CC(c3ccco3)=NN2c2ccccc2)o1 (stereo not drawn) | > 100 µM | > 100 µM | – | > 100 µM | > 100 µM | – | – | > 100 µM | – | > 100 µM
9 | CC(C(O)Cc1ccccc1)N(C)N=Nc1ccc([N+](=O)[O-])cc1 (stereo not drawn) | 33.7 µM | 48.1 µM | – | 37.5 µM | 60.6 µM | 33.7 µM | 85.5 µM | > 100 µM | 45.4 µM | –
10 | CC(C)=CCNc1ncnc2c1ncn2CCC#N | > 100 µM | > 100 µM | > 100 µM | > 100 µM | > 100 µM | > 100 µM | > 100 µM | > 100 µM | – | > 100 µM
11 | CCCCN=C(c1ccccc1)N1CCOCC1 | > 100 µM | > 100 µM | – | > 100 µM | > 100 µM | > 100 µM | > 100 µM | > 100 µM | > 100 µM | > 100 µM
12 | Cn1c2ccccc2c(=NNc2cccc(C(=O)O)c2)c2ccccc21 | 53.3 µM | 32 µM | 51.2 µM | 47.8 µM | 35.5 µM | 41 µM | 47.8 µM | 22.7 µM | 58.6 µM | –
13 | CCC/C(Cl)=N\OC(=O)Nc1ccc(OC(F)(F)F)cc1 | 36.3 µM | 53.8 µM | 4.48 µM | 35.5 µM | – | 25.8 µM | 33.4 µM | 4.59 µM | 39.8 µM | –
14 | COc1cc2c3c(c1OC)C1(C=CC(=O)C=C1)C[C@H]3N(C)CC2 | > 100 µM | > 100 µM | > 100 µM | – | > 100 µM | – | – | > 100 µM | > 100 µM | > 100 µM
15 | CC1CCCC(CC(=O)O)(CC(=O)O)C1 (stereo not drawn) | > 100 µM | > 100 µM | > 100 µM | – | > 100 µM | > 100 µM | – | > 100 µM | > 100 µM | > 100 µM
16 | COc1c(C(C)C)cc2c3c1OC(=O)[C@@]31CCCC(C)(C)C1CC2 (stereo partly drawn) | 62 µM | 89.9 µM | – | > 100 µM | > 100 µM | – | – | > 100 µM | 54.1 µM | > 100 µM
17 | CC(C)(C)C(=O)CC1=Nc2ccccc2SC1(O)CC(=O)C(C)(C)C (stereo not drawn) | 57 µM | 98.7 µM | – | 76.2 µM | > 100 µM | 36.2 µM | > 100 µM | 24.3 µM | > 100 µM | 33 µM
18 | Oc1cccc(-c2nc3cc(F)ccc3s2)c1 | 51.2 µM | 70.7 µM | – | – | > 100 µM | 51.6 µM | 57.9 µM | 59 µM | 34.3 µM | 47.8 µM
19 | C=C(Cl)C(C)(Cl)CCC(Br)C(C)(C)Cl (stereo not drawn) | – | 50.7 µM | 36.5 µM | 53.4 µM | 30.9 µM | 28.7 µM | 47.5 µM | > 100 µM | 30.5 µM | 93.6 µM
20 | C=C([C@@]1(O)C[C@H]2[C@H](CCC2(OC)OC)[C@@H]2c3ccccc3O[C@@H]21)[Si](C)(C)C | > 100 µM | – | > 100 µM | > 100 µM | > 100 µM | > 100 µM | > 100 µM | > 100 µM | > 100 µM | > 100 µM
21 | CSc1sc2ccccc2[s+]1 | > 100 µM | – | > 100 µM | > 100 µM | > 100 µM | – | – | > 100 µM | > 100 µM | > 100 µM
22 | O=C(O)/C=c1/c2ccccc2n2nc3ccccc3c12 | 60.8 µM | > 100 µM | – | > 100 µM | > 100 µM | > 100 µM | > 100 µM | 69.6 µM | 70 µM | 49.2 µM
23 | O=C1O[C@H](c2ccc3c(c2)OCO3)[C@H]2CO[C@@H](c3ccc4c(c3)OCO4)[C@@H]12 | > 100 µM | > 100 µM | > 100 µM | > 100 µM | > 100 µM | > 100 µM | – | > 100 µM | > 100 µM | > 100 µM
24 | Cn1c(COC(=O)Nc2ccccc2)c(COC(=O)Nc2ccccc2)c2ccc3cc(Cl)c(Cl)cc3c21 | 7.5 µM | > 75 µM | 7.54 µM | – | > 75 µM | 12.7 µM | 31 µM | > 75 µM | 21.6 µM | –
25 | COc1cc(OC)c(C2c3cc4c(cc3OC(N3CCCC3)C2C)OCO4)c(OC)c1 (stereo not drawn) | > 100 µM | 59.1 µM | – | 40.1 µM | > 100 µM | – | 59.2 µM | 31.6 µM | 73 µM | 29.6 µM
